# Source: patent publication US20240408071A1, “NOVEL COMBINATION OF SEROTONIN RECEPTOR (5-HTR2B) ANTAGONIST AND AN IMMUNOMODULATOR AND CHEMOTHERAPEUTIC DRUGS FOR INHIBITION OF CANCER” (NATIONAL CENTRE FOR CELL SCIENCE, priority 2021, published 2024)
# How the values were obtained:
# [1] = system: MC38 cells; experiment: MTT cell viability assay; format: cell-based, mouse; settings: graded dose; reduced serum media; 48 hours of stimulation
# Method: FIG. 6 depicts that 5-HTR2B signalling in colon cancer affects cell proliferation and viability: Colon cancer MC38 cells were treated with serotonin (100 μM), 5-HTR2B agonist (BW-723C86; 50 μM), or 5-HTR2B antagonist (SB-215505; 50 μM) for 48 hours, and cell cycle analysis was performed by propidium iodide staining using flow cytometry. MC38 cells were also treated with a graded dose of 5-HTR2B agonist (BW-723C86) or serotonin. MTT assay was performed to measure cell viability. (A) After treatment with 5-HTR2B agonist BW-723C86, serotonin, or 5-HTR2B antagonist SB-215505, the relative cell cycle analysis is shown. (B) Relative cell viability data of MC38 cells following treatment of graded doses of 5-HTR2B agonist BW-723C86 or serotonin are shown. The data shown are representative of one of the three independent experiments. (C) MC38 tumor sections from the control tumor and 5-HTR2B antagonist treated tumor were stained for CD31 and the number of CD31^+ micro-blood vessels/mm^2 of tissue sections was counted and plotted to observe angiogenesis. Error bar represents ±standard error of the mean (SEM).
# MC38 cells were cultured at a density of 0.5×10^4 cells/well in 96 well plates (flat bottom) and were allowed to adhere for 24 hours. […] Then, MTT crystals were dissolved with DMSO, and the reading was taken at 590 nm in an ELISA reader (Thermofisher). […]
# [2] = target: 5-HTR2B receptor subtype (Homo sapiens, UniProt P41595); settings: more specific to 5-HTR2B; cited from earlier work
# Chain of 5-HTR2B receptor subtype (P41595 whole entry): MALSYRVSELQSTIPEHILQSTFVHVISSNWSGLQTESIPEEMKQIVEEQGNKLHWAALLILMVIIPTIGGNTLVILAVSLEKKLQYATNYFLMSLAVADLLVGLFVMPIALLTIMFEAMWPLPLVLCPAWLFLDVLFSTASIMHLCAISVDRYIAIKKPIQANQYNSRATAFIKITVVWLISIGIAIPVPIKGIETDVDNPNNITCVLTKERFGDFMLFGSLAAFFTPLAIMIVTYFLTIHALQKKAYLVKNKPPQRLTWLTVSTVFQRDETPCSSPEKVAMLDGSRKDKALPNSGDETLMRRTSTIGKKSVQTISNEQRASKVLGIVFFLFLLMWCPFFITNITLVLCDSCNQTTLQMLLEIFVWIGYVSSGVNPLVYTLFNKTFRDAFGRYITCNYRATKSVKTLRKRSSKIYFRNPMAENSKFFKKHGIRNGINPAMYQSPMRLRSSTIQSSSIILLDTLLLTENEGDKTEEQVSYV
# [3] = system: B16F10 melanoma tumor; experiment: Adoptive transfer of lymph node cells into NRG mice bearing MC38 and B16F10 tumors: B16F10 flank; format: in vivo; settings: same recipient mice, other flank (FIG. 11B)
# Method: FIG. 11 depicts the effect of 5-HTR antagonists on the antigen-specific CTL response MC38 tumor model in mice: (A) Representative experimental plan of the adoptive transfer experiment where NRG mice. In brief, NRG mice were inoculated with MC38 on one flank and B16F10 cells on the other. These mice received total lymph node cells from naïve C57BL/6J mice or MC38 tumor-bearing control or RS-127445 treated mice. (B) Tumor volume data from the above-described experiment was measured and plotted (C) Immunocytochemistry data showing expression of H2-Kb-[…]^+ (red) on MC38 cells transfected with pCL-neo-OVA plasmid on the right side and MC38 cells without transfection. DAPI is used as a counterstain. (D-E) C7BL/6J mice were inoculated with an MC38-ova cell line and treated with RS-127445 or left untreated. After 10 days of such treatment, Total lymph node cells were harvested tagged with CFSE, and cultured in the presence of ovalbumin protein (50 μg/ml) for 5 days. After 5 days cells were checked for CFSE expression by flow cytometry to check proliferation. Here is the data (D) showing the CFSE in CD8^+ cells. The statistical data of the total percentage of CFSE^− CD8 T cells corresponding with the percentage of proliferated CD8 T cells were plotted. […]
SMILES,viability of MC38 cells [1],specificity to the 5-HTR2B receptor subtype [2],B16F10 tumor growth after transfer of antagonist primed total immune cells [3]
CC(N)Cc1c[nH]c2ccc(OCc3cccs3)cc12 (stereo not drawn) [BW-723C86],enhanced the viability of MC38 cells,–,–
CC(C)c1cc(-c2ccc(F)c3ccccc23)nc(N)n1 [RS-127445],–,~1000 times,failed to control B16F10 tumor growth
